The values that follow are results of earlier work, collected in patent publication US11796546B2, “Methods for quantifying drug concentration in a prodrug composition” (GENZYME CORPORATION, priority 2019, dated 2023).

The test system of series [1] is type 2 diabetes mellitus patients.

Regarding “HdSQGTFTSDLSKQK(γE-palmitate)ESKAAQDFIEWLKAGGPSSGAPPPS-NH2 [SAR425899]”, the in vivo clearance entry is listed as “rapid in vivo clearance”. Moreover, the “glycemic control and weight loss” value in series [1] is “facilitate glycemic control and weight loss”.
